# Structures can show the parent of a compound that is named as a salt.
# Molecular target: TRPC6 (Homo sapiens (Human), UniProt Q9Y210)
# Experiment: High throughput screening assay: fluorescent calcium (Fluo4/AM) assay of TRPC6 channel activation by GSK1702934A in HEK293/TREx cells
# Assay type: cell-based
# Details: HEK293/TREx cells stably transfected with TRPC6; agonist GSK1702934A; 7 concentrations 20 μM to 0.027 μM, triplicate
# Method in brief: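 HEK293/TREx cells stably carrying a TRPC6 construct were induced with 1 μg/ml tetracycline, plated at ~35,000 cells/well in 384-well CellBind plates, and loaded with 0.5 μM Fluo4/AM in Ringer's with 1% Pluronic F-127. Compounds were added 2 minutes before 125 nM GSK1702934A in high-Ca2+ Ringer. Fluorescence was read on a Hamamatsu FDSS 6000, normalized to controls, and fitted for IC50 from triplicates.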
# TRPC6, sequence (Q9Y210 whole entry, species assumed): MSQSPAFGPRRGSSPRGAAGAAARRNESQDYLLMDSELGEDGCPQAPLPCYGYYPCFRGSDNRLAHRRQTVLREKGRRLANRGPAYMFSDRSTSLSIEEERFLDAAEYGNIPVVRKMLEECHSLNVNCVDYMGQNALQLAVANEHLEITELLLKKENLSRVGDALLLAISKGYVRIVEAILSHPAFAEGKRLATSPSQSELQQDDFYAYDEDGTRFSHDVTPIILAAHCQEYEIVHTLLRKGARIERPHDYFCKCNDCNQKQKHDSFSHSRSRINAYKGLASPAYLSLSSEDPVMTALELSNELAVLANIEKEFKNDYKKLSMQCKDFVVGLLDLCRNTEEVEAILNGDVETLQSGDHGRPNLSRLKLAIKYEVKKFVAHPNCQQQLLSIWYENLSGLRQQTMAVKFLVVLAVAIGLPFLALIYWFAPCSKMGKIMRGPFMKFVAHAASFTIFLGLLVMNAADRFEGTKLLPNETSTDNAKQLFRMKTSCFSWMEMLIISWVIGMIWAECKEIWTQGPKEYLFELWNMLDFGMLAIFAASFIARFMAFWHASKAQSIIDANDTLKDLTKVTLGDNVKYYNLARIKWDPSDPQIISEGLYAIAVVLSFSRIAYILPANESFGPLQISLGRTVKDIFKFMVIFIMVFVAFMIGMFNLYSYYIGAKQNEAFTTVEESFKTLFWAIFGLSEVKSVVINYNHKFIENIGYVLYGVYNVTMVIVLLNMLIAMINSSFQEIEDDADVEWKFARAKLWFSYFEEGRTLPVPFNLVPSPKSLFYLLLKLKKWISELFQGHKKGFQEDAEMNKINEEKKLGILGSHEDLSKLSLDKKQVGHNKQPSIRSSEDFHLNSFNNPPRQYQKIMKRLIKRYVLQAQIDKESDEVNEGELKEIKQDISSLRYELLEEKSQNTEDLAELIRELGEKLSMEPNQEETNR
row,Structure (SMILES),IC50
1,"COc1cc(C(=O)N2CCN(c3cnc(N)cc3OC)CC23CC3)ncc1Oc1ccc(F)cc1 [Compound 9, [7-(6-Amino-4-methoxy-pyridin-3-yl)-4,7-diaza-spiro[2.5]oct-4-yl]-[5-(4-fluoro-phenoxy)-4-methoxy-pyridin-2-yl]-methanone]",27 nM
2,"CCOc1cc(C(=O)N2CCC(c3ccc(N)nn3)CC2)ncc1Oc1ccc(F)cc1 [Compound 88, [4-(6-Amino-pyridazin-3-yl)-piperidin-1-yl]-[5-(4-fluoro-phenoxy)-4-ethoxy-pyridin-2-yl]-methanone]",750 nM
3,"COc1cc(C(=O)N2CCC(c3ccc(N)nn3)CC2)ncc1OCC(C)(C)C [Compound 74, [4-(6-Amino-pyridazin-3-yl)-piperidin-1-yl]-[5-(2,2-dimethyl-propoxy)-4-methoxy-pyridin-2-yl]-methanone]",1400 nM
4,"COc1cc(C(=O)N2CCC(c3cc(OC)c(N)nn3)CC2)ncc1Oc1ccccc1 [Compound 21, [4-(6-Amino-5-methoxy-pyridazin-3-yl)-piperidin-1-yl]-(4-methoxy-5-phenoxy-pyridin-2-yl)-methanone]",43 nM
5,"COc1ccc(Oc2cnc(C(=O)N3CCC(c4nnc(N)cc4OC)CC3)cc2OC)cc1 [Compound 66, [4-(6-Amino-4-methoxy-pyridazin-3-yl)-piperidin-1-yl]-[4-methoxy-5-(4-methoxy-phenoxy)-pyridin-2-yl]-methanone]",840 nM
6,"COc1cc(C(=O)N2CCC(c3cnc(N)cc3OC)CC2)ncc1OC[C@H]1C[C@@H](C(F)(F)F)C1 [Compound 93, TFA salt of 4-Methoxy-5-[1-(4-methoxy-5-{[3-(trifluoromethyl)-cyclobutyl]methoxy}-pyridine-2-carbonyl)piperidin-4-yl]pyridin-2-amin]",595 nM
7,"COc1cc(C(=O)N2CCC(c3cnc(N)cc3OC)CC2)ncc1OCC(C)C(F)(F)F (single isomer, unassigned) [Compound 94a, 4-Methoxy-5-(1-{4-methoxy-5-[3,3,3-trifluoro-2-methylpropoxy]pyridine-2-carbonyl}piperidin-4-yl)-pyridin-2-amine]",343 nM
8,"COc1cc(C(=O)N2CCN(c3cnc(N)cc3C)C[C@@H]2CO)ncc1Oc1ccccc1 [Compound 18, [(R)-4-(6-Amino-4-methyl-pyridin-3-yl)-2-hydroxymethyl-piperazin-1-yl]-(4-methoxy-5-phenoxy-pyridin-2-yl)-methanone]",31 nM
9,"COc1cc(C(=O)N2CCN(c3ccc(N)nc3)CC2)ncc1Oc1ccc(F)cc1 [Compound 13, [4-(6-Amino-pyridin-3-yl)-piperazin-1-yl]-[5-(4-fluoro-phenoxy)-4-methoxy-pyridin-2-yl]-methanone]",27 nM
10,"CCCOc1cnc(C(=O)N2CCC(c3cnc(N)cc3OC)CC2)cc1OC [Compound 46, (6-Amino-4-methoxy-3′,4′,5′,6′-tetrahydro-2′H-[3,4′]bipyridinyl-1′-yl)-(4-methoxy-5-propoxy-pyridin-2-yl)-methanone]",160 nM

# Other lines, results leading:
row,IC50,Structure (SMILES)
1,< 27 nM,"COc1cc(C(=O)N2CCC(c3ccc(N)nc3)CC2)ncc1Oc1ccccc1 [Compound 3, (6-Amino-3′,4′,5′,6′-tetrahydro-2′H-[3,4′]bipyridinyl-1′-yl)-(4-methoxy-5-phenoxy-pyridin-2-yl)-methanone]"
2,560 nM,"COc1cc(C(=O)N2CCC(c3ccc(N)nn3)CC2)ncc1OCCC1CC1 [Compound 67, [4-(6-Amino-pyridazin-3-yl)-piperidin-1-yl]-[5-(2-cyclopropyl-ethoxy)-4-methoxy-pyridin-2-yl]-methanone]"
3,620 nM,CCOc1cc(N)nnc1C1CCN(C(=O)c2cc(OC)c(Oc3ccc(C(F)(F)F)cc3)cn2)CC1 [Compound 87]
4,830 nM,"CCOc1cnc(C(=O)N2CCC(c3cnc(N)cc3OC)CC2)cc1OC [Compound 65, (6-Amino-4-methoxy-3′,4′,5′,6′-tetrahydro-2′H-[3,4′]bipyridinyl-1′-yl)-(5-ethoxy-4-methoxy-pyridin-2-yl)-methanone]"
5,47 nM,"COc1cc(N)ncc1N1CCN(C(=O)c2ccc(Oc3ccccc3)cn2)[C@@H]([C@@H](C)O)C1 [Compound 50, (1R)-1-[(2R)-4-(6-amino-4-methoxypyridin-3-yl)-1-(5-phenoxypyridine-2-carbonyl)piperazin-2-yl]ethan-1-ol]"
6,220 nM,"COC[C@H]1CN(c2cnc(N)cc2OC)CCN1C(=O)c1cc(OC)c(Oc2ccc(F)cc2)cn1 [Compound 55, [(R)-4-(6-Amino-4-methoxy-pyridin-3-yl)-2-methoxymethyl-piperazin-1-yl]-[5-(4-fluoro-phenoxy)-4-methoxy-pyridin-2-yl]-methanone]"
7,67 nM,"COc1cc(C(=O)N2CCC(c3cnc(N)cc3OC)CC2)ncc1Oc1ccc(C(F)(F)F)cc1 [Compound 24, (6-Amino-4-methoxy-3′,4′,5′,6′-tetrahydro-2′H-[3,4′]bipyridinyl-1′-yl)-[4-methoxy-5-(4-trifluoromethyl-phenoxy)-pyridin-2-yl]-methanone]"
